# Source: ChEMBL document CHEMBL1201862, “PubChem BioAssay data set” (2004)
# Active and inactive are the calls of the source.
# Key:
# Assay type in all cases: functional
# [1] = target: Ribosomal protein S6 kinase alpha-3 (Homo sapiens, UniProt P51812);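 also: measured within a kinome-wide profiling panel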
# [2] = target: T1, Tyrosine-protein kinase receptor TYRO3 (Homo sapiens, UniProt Q06418);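 also: TYRO3 value obtained as one member of a kinome-wide profiling panel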
# T1 sequence (Q06418 whole entry): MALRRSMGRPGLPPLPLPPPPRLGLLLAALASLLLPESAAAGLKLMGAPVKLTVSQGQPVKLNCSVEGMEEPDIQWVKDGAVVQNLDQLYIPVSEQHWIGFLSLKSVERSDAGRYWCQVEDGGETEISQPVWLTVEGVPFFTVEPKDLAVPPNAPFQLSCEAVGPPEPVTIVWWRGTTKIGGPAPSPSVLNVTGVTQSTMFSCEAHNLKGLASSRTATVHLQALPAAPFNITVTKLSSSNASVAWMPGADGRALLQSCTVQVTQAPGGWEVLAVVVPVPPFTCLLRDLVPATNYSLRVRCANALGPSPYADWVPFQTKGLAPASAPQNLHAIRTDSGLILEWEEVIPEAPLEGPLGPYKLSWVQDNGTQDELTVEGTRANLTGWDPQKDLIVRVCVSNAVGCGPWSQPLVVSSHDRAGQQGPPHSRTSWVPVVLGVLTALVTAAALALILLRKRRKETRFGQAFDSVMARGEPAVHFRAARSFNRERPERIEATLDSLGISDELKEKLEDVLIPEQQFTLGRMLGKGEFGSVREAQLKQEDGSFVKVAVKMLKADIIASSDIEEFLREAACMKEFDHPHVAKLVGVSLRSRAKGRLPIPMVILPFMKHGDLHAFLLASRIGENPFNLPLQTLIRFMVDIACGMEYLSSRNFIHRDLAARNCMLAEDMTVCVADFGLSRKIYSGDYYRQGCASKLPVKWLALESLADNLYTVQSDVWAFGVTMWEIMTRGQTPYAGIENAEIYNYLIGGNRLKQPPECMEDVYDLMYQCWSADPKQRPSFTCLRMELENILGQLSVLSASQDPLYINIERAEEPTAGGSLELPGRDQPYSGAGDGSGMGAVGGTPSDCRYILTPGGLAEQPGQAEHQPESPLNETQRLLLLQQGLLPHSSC
# [3] = target: Tyrosine-protein kinase Lck (Homo sapiens, UniProt P06239);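 also: lck was assayed as one member of a kinase panel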
# [4] = target: Mitogen-activated protein kinase 9 (Homo sapiens, UniProt P45984);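 also: value from a kinome panel profiling assay, MAPK9 panel entry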
# [5] = target: LIM domain kinase 1 (Homo sapiens, UniProt P53667); assay: Navigating the Kinome. Panel member name: LIMK1
# [6] = target: Platelet-derived growth factor receptor beta (Homo sapiens, UniProt P09619);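 also: value comes from a kinome panel, with PDGFRB tested as one panel member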
# [7] = target: T2, Receptor-type tyrosine-protein kinase FLT3 (Homo sapiens, UniProt P36888);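 also: FLT3 was tested as one member of a kinome-wide kinase panel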
# T2 sequence (P36888 whole entry): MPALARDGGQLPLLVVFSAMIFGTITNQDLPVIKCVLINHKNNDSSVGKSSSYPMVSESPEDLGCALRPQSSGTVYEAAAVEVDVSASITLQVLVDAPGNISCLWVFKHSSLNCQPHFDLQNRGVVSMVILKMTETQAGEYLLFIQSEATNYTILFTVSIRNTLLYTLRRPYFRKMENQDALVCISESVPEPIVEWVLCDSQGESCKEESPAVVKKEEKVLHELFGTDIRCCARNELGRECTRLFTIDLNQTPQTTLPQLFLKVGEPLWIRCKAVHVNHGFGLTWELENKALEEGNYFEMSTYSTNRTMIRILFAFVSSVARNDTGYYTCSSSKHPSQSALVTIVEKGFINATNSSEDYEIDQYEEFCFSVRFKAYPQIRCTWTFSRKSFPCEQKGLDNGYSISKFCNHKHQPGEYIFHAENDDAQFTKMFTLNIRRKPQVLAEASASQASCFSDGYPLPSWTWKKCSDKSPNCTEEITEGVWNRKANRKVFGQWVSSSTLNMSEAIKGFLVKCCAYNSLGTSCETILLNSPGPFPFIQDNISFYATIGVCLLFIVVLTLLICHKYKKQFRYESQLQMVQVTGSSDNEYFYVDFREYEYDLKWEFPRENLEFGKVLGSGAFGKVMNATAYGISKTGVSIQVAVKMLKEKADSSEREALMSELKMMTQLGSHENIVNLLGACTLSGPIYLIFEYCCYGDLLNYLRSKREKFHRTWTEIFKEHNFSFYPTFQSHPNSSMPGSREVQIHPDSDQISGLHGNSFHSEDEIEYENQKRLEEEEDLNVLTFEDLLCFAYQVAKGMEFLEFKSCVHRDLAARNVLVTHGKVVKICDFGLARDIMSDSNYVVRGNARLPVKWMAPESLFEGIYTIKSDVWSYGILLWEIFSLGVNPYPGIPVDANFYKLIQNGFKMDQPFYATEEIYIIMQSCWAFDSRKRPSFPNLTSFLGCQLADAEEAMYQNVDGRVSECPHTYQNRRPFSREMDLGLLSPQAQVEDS
# [8] = target: Serine/threonine-protein kinase Chk1 (Homo sapiens, UniProt O14757);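 also: measured as one member of a kinome-wide kinase profiling panel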
# [9] = target: Tyrosine-protein kinase ABL1 (Homo sapiens, UniProt P00519)
# [10] = target: T3, Serine/threonine-protein kinase Nek2 (Homo sapiens, UniProt P51955)
# T3 sequence (P51955 whole entry): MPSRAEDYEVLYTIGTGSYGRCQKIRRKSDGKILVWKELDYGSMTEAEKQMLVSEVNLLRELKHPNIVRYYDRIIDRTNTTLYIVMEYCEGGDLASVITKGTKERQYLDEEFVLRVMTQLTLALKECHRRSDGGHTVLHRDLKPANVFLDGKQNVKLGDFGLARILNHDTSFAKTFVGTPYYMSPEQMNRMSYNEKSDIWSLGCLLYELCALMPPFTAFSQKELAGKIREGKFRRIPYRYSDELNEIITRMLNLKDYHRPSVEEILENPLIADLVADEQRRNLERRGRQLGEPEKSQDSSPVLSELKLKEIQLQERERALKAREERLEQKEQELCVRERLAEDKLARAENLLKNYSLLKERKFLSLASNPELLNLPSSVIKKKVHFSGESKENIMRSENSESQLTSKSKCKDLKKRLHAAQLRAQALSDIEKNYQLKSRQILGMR
# [11] = target: BDNF/NT-3 growth factors receptor (Homo sapiens, UniProt Q16620);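 also: NTRK2 measured as one member of a broad kinome-wide kinase profiling panel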
# [12] = target: Casein kinase I isoform alpha (Homo sapiens, UniProt P48729)
# [13] = target: Maternal embryonic leucine zipper kinase (Homo sapiens, UniProt Q14680)
# [14] = target: Serine/threonine-protein kinase 3 (Homo sapiens, UniProt Q13188);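 also: measured as one member of a kinome-wide kinase panel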
# Chain of BDNF/NT-3 growth factors receptor (Q16620 whole entry, canonical isoform): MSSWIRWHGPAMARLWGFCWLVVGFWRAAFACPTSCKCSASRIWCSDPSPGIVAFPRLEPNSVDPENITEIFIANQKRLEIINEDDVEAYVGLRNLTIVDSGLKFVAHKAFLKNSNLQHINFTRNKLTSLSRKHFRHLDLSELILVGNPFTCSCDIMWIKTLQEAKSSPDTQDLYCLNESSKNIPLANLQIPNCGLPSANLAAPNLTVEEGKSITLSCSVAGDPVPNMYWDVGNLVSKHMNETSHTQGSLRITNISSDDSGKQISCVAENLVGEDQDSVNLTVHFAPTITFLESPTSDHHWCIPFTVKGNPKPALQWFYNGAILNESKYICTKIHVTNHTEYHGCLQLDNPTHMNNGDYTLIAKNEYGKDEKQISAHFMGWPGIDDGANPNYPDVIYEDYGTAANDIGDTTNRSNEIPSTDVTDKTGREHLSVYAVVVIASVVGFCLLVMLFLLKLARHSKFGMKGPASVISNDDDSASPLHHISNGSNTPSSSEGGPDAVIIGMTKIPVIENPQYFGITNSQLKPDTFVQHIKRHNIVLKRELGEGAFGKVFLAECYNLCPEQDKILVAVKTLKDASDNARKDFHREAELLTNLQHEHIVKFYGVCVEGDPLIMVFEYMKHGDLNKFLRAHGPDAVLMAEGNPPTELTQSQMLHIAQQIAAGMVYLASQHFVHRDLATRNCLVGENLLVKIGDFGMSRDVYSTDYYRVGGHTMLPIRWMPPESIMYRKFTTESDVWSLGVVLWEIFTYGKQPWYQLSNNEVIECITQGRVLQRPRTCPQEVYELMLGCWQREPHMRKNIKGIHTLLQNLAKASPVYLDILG
# Chain of Ribosomal protein S6 kinase alpha-3 (P51812 whole entry): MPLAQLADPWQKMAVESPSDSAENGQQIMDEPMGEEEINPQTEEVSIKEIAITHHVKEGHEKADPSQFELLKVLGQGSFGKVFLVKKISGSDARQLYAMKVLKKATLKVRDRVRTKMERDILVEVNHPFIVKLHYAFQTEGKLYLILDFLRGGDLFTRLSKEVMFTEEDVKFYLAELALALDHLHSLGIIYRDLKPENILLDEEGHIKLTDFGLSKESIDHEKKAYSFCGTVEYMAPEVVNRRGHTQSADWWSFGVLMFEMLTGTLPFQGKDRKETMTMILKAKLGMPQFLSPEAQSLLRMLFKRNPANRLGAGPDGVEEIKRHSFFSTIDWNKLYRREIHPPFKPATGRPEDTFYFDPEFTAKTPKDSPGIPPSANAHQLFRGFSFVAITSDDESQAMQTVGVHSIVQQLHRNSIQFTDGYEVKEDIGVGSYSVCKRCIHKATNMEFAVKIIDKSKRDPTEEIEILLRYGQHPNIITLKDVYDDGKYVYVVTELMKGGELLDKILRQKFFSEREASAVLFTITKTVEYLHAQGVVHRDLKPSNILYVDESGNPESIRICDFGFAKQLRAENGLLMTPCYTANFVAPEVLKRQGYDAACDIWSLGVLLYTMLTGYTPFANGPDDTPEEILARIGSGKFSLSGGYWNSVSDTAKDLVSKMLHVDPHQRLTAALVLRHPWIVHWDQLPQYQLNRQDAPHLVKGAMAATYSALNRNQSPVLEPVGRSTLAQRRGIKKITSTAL
# Chain of Serine/threonine-protein kinase Chk1 (O14757 whole entry): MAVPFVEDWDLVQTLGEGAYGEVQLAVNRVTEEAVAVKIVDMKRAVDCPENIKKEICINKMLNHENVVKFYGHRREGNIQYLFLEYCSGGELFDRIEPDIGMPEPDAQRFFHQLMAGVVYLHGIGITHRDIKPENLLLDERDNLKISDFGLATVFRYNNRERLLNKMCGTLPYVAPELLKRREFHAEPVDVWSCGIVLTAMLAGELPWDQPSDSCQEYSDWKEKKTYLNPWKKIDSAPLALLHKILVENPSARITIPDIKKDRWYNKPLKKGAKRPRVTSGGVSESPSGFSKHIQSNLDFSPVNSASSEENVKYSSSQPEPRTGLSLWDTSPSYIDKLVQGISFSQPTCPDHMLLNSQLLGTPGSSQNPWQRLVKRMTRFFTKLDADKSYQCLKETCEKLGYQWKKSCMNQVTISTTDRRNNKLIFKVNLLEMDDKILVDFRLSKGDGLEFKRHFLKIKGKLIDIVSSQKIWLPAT
# Chain of Tyrosine-protein kinase ABL1 (P00519 whole entry): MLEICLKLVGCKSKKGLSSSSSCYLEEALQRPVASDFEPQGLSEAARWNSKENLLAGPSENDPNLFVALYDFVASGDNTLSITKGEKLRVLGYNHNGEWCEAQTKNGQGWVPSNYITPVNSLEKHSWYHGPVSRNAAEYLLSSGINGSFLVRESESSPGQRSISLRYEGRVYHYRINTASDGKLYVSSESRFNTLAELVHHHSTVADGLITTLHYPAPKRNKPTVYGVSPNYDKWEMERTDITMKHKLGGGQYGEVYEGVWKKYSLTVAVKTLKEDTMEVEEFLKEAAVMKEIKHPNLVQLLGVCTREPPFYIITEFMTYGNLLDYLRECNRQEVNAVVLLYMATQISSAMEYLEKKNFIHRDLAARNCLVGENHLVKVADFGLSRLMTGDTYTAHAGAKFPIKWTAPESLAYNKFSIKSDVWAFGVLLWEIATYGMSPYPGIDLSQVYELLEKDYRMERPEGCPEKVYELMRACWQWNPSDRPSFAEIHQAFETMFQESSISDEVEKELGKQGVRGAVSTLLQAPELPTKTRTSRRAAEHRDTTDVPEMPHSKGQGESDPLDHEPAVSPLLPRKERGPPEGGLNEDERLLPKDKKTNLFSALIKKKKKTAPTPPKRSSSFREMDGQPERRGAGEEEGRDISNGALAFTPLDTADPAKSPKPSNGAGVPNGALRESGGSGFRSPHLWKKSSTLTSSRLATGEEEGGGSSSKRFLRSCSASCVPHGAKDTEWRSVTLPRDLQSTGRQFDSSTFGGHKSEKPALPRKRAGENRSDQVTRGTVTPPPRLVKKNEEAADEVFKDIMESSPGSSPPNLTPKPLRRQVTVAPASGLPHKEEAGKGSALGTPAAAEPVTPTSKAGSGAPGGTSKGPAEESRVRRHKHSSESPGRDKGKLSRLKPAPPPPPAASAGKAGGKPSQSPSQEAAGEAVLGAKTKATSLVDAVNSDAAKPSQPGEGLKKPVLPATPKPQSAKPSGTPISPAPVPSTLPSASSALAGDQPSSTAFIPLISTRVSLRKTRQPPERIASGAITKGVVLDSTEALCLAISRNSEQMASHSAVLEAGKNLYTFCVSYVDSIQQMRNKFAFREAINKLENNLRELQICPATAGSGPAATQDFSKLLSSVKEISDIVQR
# Chain of Tyrosine-protein kinase Lck (P06239 whole entry): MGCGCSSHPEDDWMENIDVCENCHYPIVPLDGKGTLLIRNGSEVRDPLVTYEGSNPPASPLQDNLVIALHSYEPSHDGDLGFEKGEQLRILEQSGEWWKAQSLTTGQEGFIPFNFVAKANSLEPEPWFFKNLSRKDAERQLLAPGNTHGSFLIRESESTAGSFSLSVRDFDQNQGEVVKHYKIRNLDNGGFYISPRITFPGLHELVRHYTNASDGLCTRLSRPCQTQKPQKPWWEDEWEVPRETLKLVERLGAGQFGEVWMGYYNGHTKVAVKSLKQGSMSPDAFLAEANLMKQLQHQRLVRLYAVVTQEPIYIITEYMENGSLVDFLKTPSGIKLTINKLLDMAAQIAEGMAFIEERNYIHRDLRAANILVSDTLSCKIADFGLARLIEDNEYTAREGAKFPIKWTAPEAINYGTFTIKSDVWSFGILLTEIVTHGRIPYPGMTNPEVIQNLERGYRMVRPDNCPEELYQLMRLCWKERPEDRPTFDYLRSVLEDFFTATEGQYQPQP
# Chain of Maternal embryonic leucine zipper kinase (Q14680 whole entry): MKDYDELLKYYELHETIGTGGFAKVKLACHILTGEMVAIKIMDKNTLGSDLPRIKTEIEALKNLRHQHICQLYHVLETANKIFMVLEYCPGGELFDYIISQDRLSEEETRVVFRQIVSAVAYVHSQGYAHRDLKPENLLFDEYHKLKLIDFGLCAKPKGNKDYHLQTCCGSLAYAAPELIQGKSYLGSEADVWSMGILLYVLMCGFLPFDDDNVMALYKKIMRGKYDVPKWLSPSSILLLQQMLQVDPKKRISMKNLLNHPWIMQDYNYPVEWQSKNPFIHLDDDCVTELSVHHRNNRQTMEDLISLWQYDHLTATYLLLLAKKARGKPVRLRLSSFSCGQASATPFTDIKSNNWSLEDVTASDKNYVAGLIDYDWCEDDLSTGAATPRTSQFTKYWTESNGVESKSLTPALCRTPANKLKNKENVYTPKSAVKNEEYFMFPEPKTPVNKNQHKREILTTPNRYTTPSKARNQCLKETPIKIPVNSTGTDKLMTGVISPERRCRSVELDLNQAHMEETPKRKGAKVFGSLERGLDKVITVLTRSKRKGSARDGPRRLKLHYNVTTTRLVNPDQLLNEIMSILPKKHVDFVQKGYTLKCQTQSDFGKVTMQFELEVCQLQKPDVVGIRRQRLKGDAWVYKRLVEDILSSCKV
# Chain of Mitogen-activated protein kinase 9 (P45984 whole entry, the tested form may be a part): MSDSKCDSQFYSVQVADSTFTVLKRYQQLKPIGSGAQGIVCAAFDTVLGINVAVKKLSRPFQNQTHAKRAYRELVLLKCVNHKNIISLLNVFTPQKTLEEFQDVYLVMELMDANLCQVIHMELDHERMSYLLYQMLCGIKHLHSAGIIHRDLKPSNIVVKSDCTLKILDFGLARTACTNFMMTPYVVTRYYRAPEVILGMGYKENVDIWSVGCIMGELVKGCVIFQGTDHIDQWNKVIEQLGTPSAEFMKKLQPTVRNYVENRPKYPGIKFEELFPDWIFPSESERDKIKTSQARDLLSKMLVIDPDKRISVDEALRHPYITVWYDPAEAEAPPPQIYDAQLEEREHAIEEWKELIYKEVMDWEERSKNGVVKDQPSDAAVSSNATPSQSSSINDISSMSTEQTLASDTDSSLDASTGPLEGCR
Structure (SMILES),Ki [1],Ki [2],Ki [3],Ki [4],Ki [5],Ki [6],Ki [7],Ki [8],Ki [9],Ki [10],Ki [11],Ki [12],Ki [13],Ki [14]
COc1cccc(C(C)NC(=O)c2sc(-c3ccncc3)nc2C)c1 (configuration not stated),> 3.98 µM (inactive),> 3.16 µM (inactive),> 6.31 µM (inactive),> 3.98 µM (inactive),> 3.16 µM (inactive),> 2 µM (inactive),> 3.16 µM (inactive),> 3.16 µM (inactive),> 2.51 µM (inactive),> 3.16 µM (inactive),> 3.98 µM (inactive),,,
CCCCC(=O)Nc1cc(-c2c[nH]c3ncccc23)cc(Cl)n1,> 3.98 µM (inactive),> 3.16 µM (inactive),,> 3.98 µM (inactive),,,> 2.51 µM (inactive),,,,> 3.98 µM (inactive),794 nM (active),> 2 µM (inactive),> 3.16 µM (inactive)
Oc1ccc(-c2nc(-c3ccncc3)c(-c3ccc(F)cc3)[nH]2)cc1 [SB-202190],> 3.98 µM (inactive),> 3.16 µM (inactive),> 5.01 µM (inactive),,> 3.16 µM (inactive),> 2 µM (inactive),> 2.51 µM (inactive),> 3.16 µM (inactive),> 2.51 µM (inactive),> 3.16 µM (inactive),0.794 µM (active),1000 nM (active),> 2 µM (inactive),> 2.51 µM (inactive)
